PMC12030043, “Preparation and Therapeutic Evaluation of Engineered Semaglutide and Statin–Lipid Conjugate-Based Nanoparticle” (Pharmaceutics, 2025)

Assays:
[1] = Particle size by dynamic light scattering (DLS) in aqueous solution; format: physicochemical; conditions: 1 mL distilled water containing 5% DMSO, semaglutide fixed at 0.1 mg, semaglutide alone 0.1 mg/mL, RLC alone 1 mg/mL, mean ± S.D., n = 3
Description: (§1) To determine the optimal formulation and final composition of the semaglutide–RLC nanoparticles (SRLC NPs), a precipitation evaluation experiment was conducted using various mass ratios (1:10, 1:20, 1:30, w/w) of semaglutide to RLC. Based on stability and particle size analysis, the 1:10 ratio was selected as the optimal formulation, and this ratio was maintained in the final product composition to ensure consistency in therapeutic efficacy and physicochemical properties. The resulting mixture was used immediately without undergoing a separate freeze-drying process. For nanoparticle preparation, semaglutide ([…]) was dissolved in 1 mL of DW, while RLC ([…]) was dissolved in 1 mL of DMSO. […] The stability of each formulation was assessed by measuring particle size at multiple time points (0, 0.5, 1, 2, 3, 4, and 5 days) using dynamic light scattering (DLS; Zetasizer Nano, Malvern Instruments, Worcestershire, UK). The zeta potential of both RLC alone and the semaglutide–RLC (1:10) formulation was also measured to evaluate the surface charge and colloidal stability of the nanoparticles. Additionally, in vivo stability was evaluated by preparing 1 mL of Dulbecco’s phosphate-buffered saline (DPBS) containing 10% fetal bovine serum (FBS) and 5% DMSO, followed by particle size measurements at different time points (0, 0.5, 1, and 2 days). […]

[2] = Zeta potential measurement; format: physicochemical; conditions: Zetasizer Nano; RLC alone and semaglutide–RLC (1:10) formulation; mean ± S.D.
Description: as §1

[3] = tested on: fibroblast cells; assay: Cytotoxicity assay in fibroblast cells (EZ-Cytox); format: cell-based; conditions: 100 µg/mL, 24 h, absorbance 450 nm/600 nm, relative to untreated control, mean ± S.D., n = 5
Description: The cytotoxicity of the RLC and SRLC nanoparticles was evaluated using fibroblast cells obtained from the Korean Cell Line Bank (Seoul, Republic of Korea). The fibroblast cells were cultured in high-glucose Dulbecco’s modified Eagle’s medium (DMEM) supplemented with 10% (v/v) fetal bovine serum (FBS) and 1% antibiotic–antimycotic solution. The cells were then seeded into a 96-well culture plate at a density of 1.0 × 10^4 cells per well and incubated for 1 h at 37 °C in a humidified atmosphere containing 5% CO2 to allow stabilization. Following stabilization, the cells were treated with RLC and SRLC nanoparticles at concentrations ranging from 0.1 to 100 […] for 24 h. Cell viability (n = 5) was evaluated using the EZ-Cytox cell viability assay kit, with absorbance readings taken at 450 nm and 600 nm using a microplate reader (SPECTROstar Nano, BMG LABTECH, Ortenberg, Germany). The viability of the treated cells was determined by comparing the UV absorbance values of the samples to those of the untreated control group.
To evaluate the cytotoxic effects of SRLC NPs, a cytotoxicity assay was performed using fibroblast cells at concentrations ranging from 0.1 to 100 µg/mL (Figure 6A).

[4] = tested on: high-fat diet (HFD)-fed mouse model; assay: Oral glucose tolerance test (OGTT) in HFD-fed mice; format: in vivo, C57BL/6 mice; conditions: day 64, 19 h fasting, oral glucose 2 g/kg, 0-180 min, glucometer, n = 3; RO 0.5 mg/kg, RLC 1 mg/kg, SRLC NPs 1.1 mg/kg s.c.
Description: (§2) All animal experiments were conducted under the standard regulations of the Institutional Animal Care and Use Committee (IACUC) at Konkuk University (ref. no. KU22078-1). The animals were housed in a controlled environment with regulated temperature and humidity, maintained under a 12 h light–dark cycle. Obesity was induced in 5-week-old male C57BL/6 mice through dietary control for 69 days. A total of 25 mice were used and divided into five experimental groups: negative control (regular diet, RD), positive control (high-fat diet, HFD), RO (0.5 mg/kg), RLC (1 mg/kg), and SRLC NPs (1.1 mg/kg). The RO dose was set at half that of RLC due to its molecular weight being approximately twice that of RLC, ensuring equivalent molar exposure. Additionally, the SRLC NP dose was adjusted to 1.1 mg/kg as it comprised 1 mg of RLC and 0.1 mg of semaglutide, allowing for the accurate comparison of therapeutic effects. While the RD group received a normal diet, the other groups were fed a high-fat diet (HFD) consisting of 60 kcal% fat (D12492, Research Diets, New Brunswick, NJ, USA). The body weights of the mice were measured weekly. Starting from day 28 of the dietary intervention, each group received their respective substances via subcutaneous injection every three days. […] Blood glucose levels were then measured at time intervals of 0, 15, 30, 60, 90, 120, and 180 min (n = 3).

[5] = tested on: high-fat diet (HFD)-fed mouse model; assay: Histopathology (H&E and oil red O staining) of liver and adipose tissue in HFD-fed mice; format: in vivo, C57BL/6 mice; conditions: for lipid staining and fat droplet accumulation in liver tissue (in words): H&E and ORO staining; for lipid staining and fat droplet accumulation in liver tissue (in words) / quantification of ORO staining: RO 0.5, RLC 1, SRLC NPs 1.1 mg/kg s.c.; for diameter of the adipocyte in sWAT: HFD group 60.32 ± 6.95 µm; for diameter of the adipocyte in sWAT / diameter of the adipocyte in eWAT: n = 7; for diameter of the adipocyte in eWAT: HFD group 64.12 ± 12.51 µm; for area of the adipocyte in sWAT: HFD group 78.86 ± 1.38%; for quantification of ORO staining: liver tissue, HFD group = 100.00 ± 15.00%
Description: All animal experiments were conducted under the standard regulations of the Institutional Animal Care and Use Committee (IACUC) at Konkuk University (ref. no. KU22078-1). The animals were housed in a controlled environment with regulated temperature and humidity, maintained under a 12 h light–dark cycle. Obesity was induced in 5-week-old male C57BL/6 mice through dietary control for 69 days. A total of 25 mice were used and divided into five experimental groups: negative control (regular diet, RD), positive control (high-fat diet, HFD), RO (0.5 mg/kg), RLC (1 mg/kg), and SRLC NPs (1.1 mg/kg). The RO dose was set at half that of RLC due to its molecular weight being approximately twice that of RLC, ensuring equivalent molar exposure. Additionally, the SRLC NP dose was adjusted to 1.1 mg/kg as it comprised 1 mg of RLC and 0.1 mg of semaglutide, allowing for the accurate comparison of therapeutic effects. While the RD group received a normal diet, the other groups were fed a high-fat diet (HFD) consisting of 60 kcal% fat (D12492, Research Diets, New Brunswick, NJ, USA). The body weights of the mice were measured weekly. Starting from day 28 of the dietary intervention, each group received their respective substances via subcutaneous injection every three days. Five days before the end of the experiment, an oral glucose tolerance test (OGTT) was conducted to assess glucose sensitivity. After 19 h of fasting, all experimental groups were administered a glucose solution orally (2 g/kg). Blood glucose levels were then measured at time intervals of 0, 15, 30, 60, 90, 120, and 180 min (n = 3). Blood glucose levels were assessed using a glucometer (G CARE, GC Medical Science, Yongin, Republic of Korea). On the final day of the experiment, after 14 h of fasting, the mice were anesthetized via intraperitoneal administration of 2,2,2-tribromoethanol (TBE), and blood samples were collected. Hepatotoxicity and lipid profiling analyses were conducted using the collected blood samples, while liver tissues were subjected to hematoxylin and eosin (H&E) and oil red O (ORO) staining for further evaluation. All analyses were performed by KP&T Technology (Cheongju, Republic of Korea).
Representative images of mice from the HFD group and the SRLC NPs-treated group on the final day of the experiment are shown in Figure 9A. To evaluate the pathological changes at the tissue level and the therapeutic effects of SRLC NPs, hematoxylin and eosin (H&E) staining and oil red O (ORO) staining were performed (Figure 9B). These staining analyses were conducted to confirm the reduction in hepatic fat accumulation and assess adipose tissue remodeling following SRLC NPs treatment. […] The area of the adipocyte in sWAT (n = 4) was as follows: HFD, 78.86 ± 1.38%; RO, 77.51 ± 2.52%; RLC, 72.72 ± 2.75%; and SRLC NPs, 47.45 ± 1.03% (Figure 9E). The diameter of the adipocyte in eWAT (n = 7) was the following: HFD, 64.12 ± 12.51 µm; RO, 59.53 ± 6.42 µm; RLC, 57.01 ± 7.04 µm; and SRLC NPs, 33.79 ± 3.62 µm (Figure 9F). The area of the adipocyte in eWAT (n = 4) was as follows: HFD, 76.44 ± 1.91%; RO, 79.30 ± 1.91%; RLC, 79.223 ± 1.53%; and SRLC NPs, 63.28 ± 2.94% (Figure 9G).

[6] = tested on: high-fat diet (HFD)-fed mouse model; assay: Anti-obesity effect (body weight) in high-fat diet (HFD)-fed mouse model; format: in vivo; conditions: HFD-fed C57BL/6 mice, day 69, s.c. every three days from day 28; RO 0.5 mg/kg, SRLC NPs 1.1 mg/kg; mean ± S.D., n = 5
Description: as §2

[7] = conventional semaglutide formulations; ref [11],[12]; cited from earlier work
From the text: Obesity and non-alcoholic fatty liver disease (NAFLD) have emerged as critical health concerns in modern society, closely linked to diabetes, cardiovascular diseases, and metabolic syndrome. As one of the most rapidly increasing metabolic disorders worldwide, there is a continuous demand for the development of effective therapeutic agents and treatment strategies.

| SMILES | particle size [1] | zeta potential [2] | cell viability [3] | blood glucose response in OGTT (in words) [4] | lipid staining and fat droplet accumulation in liver tissue (in words) [5] | diameter of the adipocyte in sWAT ([5]; H&E, mean ± S.D.) | diameter of the adipocyte in eWAT ([5]; H&E, mean ± S.D.) | area of the adipocyte in sWAT ([5]; H&E, mean ± S.D., n = 4) | quantification of ORO staining ([5]; mean ± S.D., n = 4) | body weight at the end of the experiment [6] | area of the adipocyte in eWAT ([5]; H&E, HFD group 76.44 ± 1.91%, mean ± S.D., n = 4) | oral bioavailability [7] |
| --- | --- | --- | --- | --- | --- | --- | --- | --- | --- | --- | --- | --- |
| CC(C)c1nc(N(C)S(C)(=O)=O)nc(-c2ccc(F)cc2)c1C=CC(O)CC(O)CC(=O)NCCNC(=O)CCC(C)C1CCC2C3C(O)CC4CC(O)CCC4(C)C3CCC12C (stereo not drawn) [RLC] | 613.30 ± 26.86 nm | −22.08 ± 0.48 mV | 85.60 ± 2.87% | sharp increase in blood glucose levels immediately after administration, followed by a gradual decline | abnormal fat droplet accumulation | 49.79 ± 7.09 µm | 57.01 ± 7.04 µm | 72.72 ± 2.75% | 49.50 ± 9.53% |  |  |  |
| CC(C)c1nc(N(C)S(C)(=O)=O)nc(-c2ccc(F)cc2)c1/C=C/[C@@H](O)C[C@@H](O)CC(=O)O [RO, Rosuvastatin calcium] |  |  |  | sharp increase in blood glucose levels immediately after administration, followed by a gradual decline | abnormal fat droplet accumulation | 51.20 ± 8.99 µm | 59.53 ± 6.42 µm | 77.51 ± 2.52% | 70.50 ± 8.02% | 36.20 ± 2.34 g | 79.30 ± 1.91% |  |
| CC[C@H](C)[C@H](NC(=O)[C@H](Cc1ccccc1)NC(=O)[C@H](CCC(=O)O)NC(=O)[C@H](CCCCNC(=O)COCCOCCNC(=O)COCCOCCNC(=O)CC[C@H](NC(=O)CCCCCCCCCCCCCCCCC(=O)O)C(=O)O)NC(=O)[C@H](C)NC(=O)[C@H](C)NC(=O)[C@H](CCC(N)=O)NC(=O)CNC(=O)[C@H](CCC(=O)O)NC(=O)[C@H](CC(C)C)NC(=O)[C@H](Cc1ccc(O)cc1)NC(=O)[C@H](CO)NC(=O)[C@H](CO)NC(=O)[C@@H](NC(=O)[C@H](CC(=O)O)NC(=O)[C@H](CO)NC(=O)[C@@H](NC(=O)[C@H](Cc1ccccc1)NC(=O)[C@@H](NC(=O)CNC(=O)[C@H](CCC(=O)O)NC(=O)C(C)(C)NC(=O)[C@@H](N)Cc1cnc[nH]1)[C@@H](C)O)[C@@H](C)O)C(C)C)C(=O)N[C@@H](C)C(=O)N[C@@H](Cc1c[nH]c2ccccc12)C(=O)N[C@@H](CC(C)C)C(=O)N[C@H](C(=O)N[C@@H](CCCNC(=N)N)C(=O)NCC(=O)N[C@@H](CCCNC(=N)N)C(=O)NCC(=O)O)C(C)C [semaglutide] |  |  |  |  |  |  |  |  |  |  |  | ~ 1% |
